Test results taken from the supplement of paper PMC10307832.

Assays:
Experiment in all cases: relative viability (nuclei count vs DMSO), 5 days (fraction); higher = more cells survive
Tosedostat + Palbociclib = compound: CC(C)C[C@@H](C(=O)N[C@H](C(=O)OC1CCCC1)c1ccccc1)[C@H](O)C(=O)NO [Tosedostat] + CC(=O)c1c(C)c2cnc(Nc3ccc(N4CCNCC4)cn3)nc2n(C2CCCC2)c1=O [Palbociclib] (partner 0.5 µM)
Outline: (§1)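 Nuclei were stained with Hoechst during a one-step fixation (final 0.05% Triton X-100, 1% formaldehyde, 1 ug/ml Hoechst) carried out 5 days after dosing, then counted on 4× images. The cells, lung cancer lines in 1536-well plates, had been dosed by pin tool the day after seeding with one drug alone or a fixed anchor-drug dose plus five library-drug doses (not always all listed) in √10 steps. Relative viability is the nuclei count in treated wells divided by that in vehicle wells, and each value is the median of duplicate plates.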

Tosedostat + Navitoclax = compound: CC(C)C[C@@H](C(=O)N[C@H](C(=O)OC1CCCC1)c1ccccc1)[C@H](O)C(=O)NO [Tosedostat] + CC1(C)CCC(c2ccc(Cl)cc2)=C(CN2CCN(c3ccc(C(=O)NS(=O)(=O)c4ccc(N[C@H](CCN5CCOCC5)CSc5ccccc5)c(S(=O)(=O)C(F)(F)F)c4)cc3)CC2)C1 [Navitoclax] (partner 0.5 µM)
Outline: as §1

Tosedostat + Linsitinib = compound: CC(C)C[C@@H](C(=O)N[C@H](C(=O)OC1CCCC1)c1ccccc1)[C@H](O)C(=O)NO [Tosedostat] + C[C@]1(O)C[C@@H](c2nc(-c3ccc4ccc(-c5ccccc5)nc4c3)c3c(N)nccn32)C1 [Linsitinib] (partner 1 µM)
Outline: as §1

Tosedostat + Olaparib = compound: CC(C)C[C@@H](C(=O)N[C@H](C(=O)OC1CCCC1)c1ccccc1)[C@H](O)C(=O)NO [Tosedostat] + O=C(c1cc(Cc2n[nH]c(=O)c3ccccc23)ccc1F)N1CCN(C(=O)C2CC2)CC1 [Olaparib] (partner 8 µM)
Outline: as §1

## UMC-11
Tosedostat + Palbociclib; first compound 0.02 µM
  relative viability: 0.339
Tosedostat + Palbociclib; first compound 0.06325 µM
  relative viability: 0.341
Tosedostat + Palbociclib; first compound 0.2 µM
  relative viability: 0.299
Tosedostat + Palbociclib; first compound 0.6325 µM
  relative viability: 0.362
Tosedostat + Palbociclib; first compound 2 µM
  relative viability: 0.338
Tosedostat + Navitoclax; first compound 0.02 µM
  relative viability: 0.343
Tosedostat + Navitoclax; first compound 0.06325 µM
  relative viability: 0.309
Tosedostat + Navitoclax; first compound 0.2 µM
  relative viability: 0.323
Tosedostat + Navitoclax; first compound 0.6325 µM
  relative viability: 0.322
Tosedostat + Navitoclax; first compound 2 µM
  relative viability: 0.287
Tosedostat + Linsitinib; first compound 0.02 µM
  relative viability: 0.995
Tosedostat + Linsitinib; first compound 0.06325 µM
  relative viability: 1.08
Tosedostat + Linsitinib; first compound 0.2 µM
  relative viability: 0.951
Tosedostat + Linsitinib; first compound 0.6325 µM
  relative viability: 0.898
Tosedostat + Linsitinib; first compound 2 µM
  relative viability: 0.976
Tosedostat + Olaparib; first compound 0.02 µM
  relative viability: 0.374
Tosedostat + Olaparib; first compound 0.06325 µM
  relative viability: 0.336
Tosedostat + Olaparib; first compound 0.2 µM
  relative viability: 0.287
Tosedostat + Olaparib; first compound 0.6325 µM
  relative viability: 0.273
Tosedostat + Olaparib; first compound 2 µM
  relative viability: 0.327
